# Measured values taken from article PMC9623506, “Development of a novel peptide inhibitor of subtilisin BPN′” (FEBS Open Bio, 2022).
# Like-named read-outs stand apart in the source and are kept apart here. Positions of bridges follow the written chain, without caps; N, C: chain ends. Residues, ends and D or L forms follow the SMILES beside them. No end group written: not given here.
# B1: SSI: Streptomyces subtilisin inhibitor (protein, UniProt P01006 32-144, looked up)
# Subtilisin inhibitor: DAPSALYAPSALVLTVGKGVSATTAAPERAVTLTCAPGPSGTHPAAGSACADLAAVGGDLNALTRGEDVMCPMVYDPVLLTVDGVWQGKRVSYERVFSNECEMNAHGSSVFAF
# B2: EGL: leech eglin‐C (protein, UniProt P01051 1-70, looked up)
# Eglin C: TEFGSELKSFPEVVGKTVDQAREYFTLHYPQYDVYFLPEGSPVTLDLRYNRVRVFYNPGTNVVNHVPHVG
# Tests used:
# subtilisin BPN′ [1] = target: T1, subtilisin BPN′ (Bacillus amyloliquefaciens, UniProt P00782); test: biochemical; assay type: biochemical; conditions: for Inhibitory activity / binding in words, by Ki: synthetic substrate N‐suc‐AAPF‐pNA, compared with prototype ASIP or single mutants
# T1 construct: purchased Sigma-Aldrich (Tokyo, Japan)
# Procedure: Subtilisin BPN′ and N‐succinyl‐Ala‐Ala‐Pro‐Phe‐p‐nitroanilide (N‐suc‐AAPF‐pNA) were purchased from Sigma‐Aldrich (Tokyo, Japan). The oligopeptides used in this study were synthesized by Eurofins Genomics (Tokyo, Japan). The formation of an S‐S bond in each peptide was accomplished by incubating an equimolar amount of cystine with the peptide, and the concentrations of the oxidized peptides were determined by amino acid analyses after hydrolysis of the peptide with 6 M HCl at 110 °C for 24 h in vacuo.
# The inhibitory activities of peptides against subtilisin BPN′ were preliminarily measured using the casein‐Folin method. First, casein was incubated with subtilisin BPN′ in the absence or presence of various molar ratios of synthetic peptides at 37 °C and pH 7.0 for 10 min. Trichloroacetic acid was added to the reaction mixture to precipitate the undigested casein, and the supernatant was mixed with sodium carbonate and Folin's phenol reagent. The absorbance at 660 nm was then measured to determine the amount of peptide obtained by digestion. Inhibitory activity was defined as the reduction in the amount of peptides derived from the enzymatic digestion of casein in the presence of a synthetic peptide when compared to the amount of peptides in the absence of synthetic peptides. To determine the K i values, the proteolytic activities of subtilisin BPN′ in the presence of various molar ratios of synthetic peptides were measured using a synthetic substrate, N‐suc‐AAPF‐pNA, as described previously, and then, the K i values were calculated by nonlinear curve fitting using the Morrison equation [13].
# subtilisin BPN′ [2] = target: T1, subtilisin BPN′; conditions: against subtilisin BPN′; cited from earlier work
# subtilisin BPN′ [3] = target: T1, subtilisin BPN′; test: ASIP without a disulfide bond with subtilisin BPN′: inhibition and cleavage; assay type: biochemical
# Excerpt: To clarify the relationship between disulfide bond formation and its activity as a subtilisin inhibitor, we measured the inhibitory activities of ASIP with or without a disulfide bond. […] The inhibitory properties of the oxidized form of ASIP were then investigated.
# subtilisin Carlsberg = conditions: against subtilisin Carlsberg; cited from earlier work
# Excerpt: Table 3 Proteinaceous subtilisin inhibitors. Amino acid residue lengths, sequences from the P4 to P4′ positions, and K i values against subtilisin BPN′ or Carlsberg of the inhibitors are listed. The most conserved residues at each position are shown in bold font. Residue numbers at the P1 position are indicated by superscript numbers.
# T1 sequence (P00782 108-382): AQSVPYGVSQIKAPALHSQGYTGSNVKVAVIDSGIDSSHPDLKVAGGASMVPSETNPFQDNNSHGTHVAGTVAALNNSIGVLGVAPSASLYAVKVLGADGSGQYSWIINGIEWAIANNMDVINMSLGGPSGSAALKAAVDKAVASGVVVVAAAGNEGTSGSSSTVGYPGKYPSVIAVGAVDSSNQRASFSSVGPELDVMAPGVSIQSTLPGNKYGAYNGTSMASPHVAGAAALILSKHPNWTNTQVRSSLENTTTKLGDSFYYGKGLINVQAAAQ
Molecule,Ki (subtilisin BPN′ [1]) [nM],also measured
CC(C)C[C@@H]1NC(=O)[C@@H](NC(=O)[C@H](CO)NC(=O)[C@H](Cc2ccccc2)NC(=O)[C@H](CC(=O)O)NC(=O)[C@@H](N)CO)CSSC[C@@H](C(=O)N[C@@H](CCCNC(=N)N)C(=O)N[C@H](C(=O)O)[C@@H](C)O)NC(=O)CNC(=O)[C@H](CCC(=O)O)NC(=O)[C@H](CO)NC1=O [ASIP] (H-SDFSCLSEGCRT-OH; disulfide 5-10),13 ± 1.64,
CC(C)C[C@@H]1NC(=O)[C@@H](NC(=O)[C@H](CO)NC(=O)[C@H](Cc2ccccc2)NC(=O)[C@H](CC(=O)O)NC(=O)[C@@H](N)CO)CSSC[C@@H](C(=O)N[C@@H](CCCNC(=N)N)C(=O)N[C@@H](C)C(=O)O)NC(=O)CNC(=O)[C@H](CCC(=O)O)NC(=O)[C@H](C)NC1=O [S7A + T12A] (H-SDFSCLAEGCRA-OH; disulfide 5-10),2.72 ± 0.04,
CC(C)C[C@@H]1NC(=O)[C@@H](NC(=O)[C@H](CO)NC(=O)[C@H](Cc2ccccc2)NC(=O)[C@H](CC(=O)O)NC(=O)[C@@H](N)CO)CSSC[C@@H](C(=O)N[C@@H](CCCNC(=N)N)C(=O)N[C@@H](CCCCN)C(=O)O)NC(=O)CNC(=O)[C@H](CCC(=O)O)NC(=O)[C@H](C)NC1=O [S7A + T12K] (H-SDFSCLAEGCRK-OH; disulfide 5-10),0.3 ± 0.02,
CC(C)C[C@@H]1NC(=O)[C@@H](NC(=O)[C@H](CO)NC(=O)[C@H](Cc2ccccc2)NC(=O)[C@H](CC(=O)O)NC(=O)[C@@H](N)CO)CSSC[C@@H](C(=O)N[C@@H](CCCNC(=N)N)C(=O)N[C@H](C(=O)O)[C@@H](C)O)NC(=O)CNC(=O)[C@H](CCC(=O)O)NC(=O)[C@H](C)NC1=O [S7A] (H-SDFSCLAEGCRT-OH; disulfide 5-10),2.58 ± 0.2,
CC(C)C[C@@H]1NC(=O)[C@@H](NC(=O)[C@H](CO)NC(=O)[C@H](Cc2ccccc2)NC(=O)[C@H](CC(=O)O)NC(=O)[C@@H](N)CO)CSSC[C@@H](C(=O)N[C@@H](CCCNC(=N)N)C(=O)NCC(=O)O)NC(=O)CNC(=O)[C@H](CCC(=O)O)NC(=O)CNC1=O [S7G + T12G] (H-SDFSCLGEGCRG-OH; disulfide 5-10),7.73 ± 0.34,
CC(C)C[C@@H]1NC(=O)[C@@H](NC(=O)[C@H](CO)NC(=O)[C@H](Cc2ccccc2)NC(=O)[C@H](CC(=O)O)NC(=O)[C@@H](N)CO)CSSC[C@@H](C(=O)N[C@@H](CCCNC(=N)N)C(=O)N[C@H](C(=O)O)[C@@H](C)O)NC(=O)CNC(=O)[C@H](CCC(=O)O)NC(=O)CNC1=O [S7G] (H-SDFSCLGEGCRT-OH; disulfide 5-10),5.14 ± 0.3,
CC(C)C[C@@H]1NC(=O)[C@@H](NC(=O)[C@H](CO)NC(=O)[C@H](Cc2ccccc2)NC(=O)[C@H](CC(=O)O)NC(=O)[C@@H](N)CO)CSSC[C@@H](C(=O)N[C@@H](CCCNC(=N)N)C(=O)N[C@@H](C)C(=O)O)NC(=O)CNC(=O)[C@H](CCC(=O)O)NC(=O)[C@H](CO)NC1=O [T12A] (H-SDFSCLSEGCRA-OH; disulfide 5-10),17.4 ± 1.42,
CC(C)C[C@@H]1NC(=O)[C@@H](NC(=O)[C@H](CO)NC(=O)[C@H](Cc2ccccc2)NC(=O)[C@H](CC(=O)O)NC(=O)[C@@H](N)CO)CSSC[C@@H](C(=O)N[C@@H](CCCNC(=N)N)C(=O)N[C@@H](CC(=O)O)C(=O)O)NC(=O)CNC(=O)[C@H](CCC(=O)O)NC(=O)[C@H](CO)NC1=O [T12D] (H-SDFSCLSEGCRD-OH; disulfide 5-10),23.1 ± 3.35,"Inhibitory activity / binding in words, by Ki (subtilisin BPN′ [1]): decreased the inhibitory activity"
CC(C)C[C@@H]1NC(=O)[C@@H](NC(=O)[C@H](CO)NC(=O)[C@H](Cc2ccccc2)NC(=O)[C@H](CC(=O)O)NC(=O)[C@@H](N)CO)CSSC[C@@H](C(=O)N[C@@H](CCCNC(=N)N)C(=O)NCC(=O)O)NC(=O)CNC(=O)[C@H](CCC(=O)O)NC(=O)[C@H](CO)NC1=O [T12G] (H-SDFSCLSEGCRG-OH; disulfide 5-10),10.6 ± 0.55,
CC(C)C[C@@H]1NC(=O)[C@@H](NC(=O)[C@H](CO)NC(=O)[C@H](Cc2ccccc2)NC(=O)[C@H](CC(=O)O)NC(=O)[C@@H](N)CO)CSSC[C@@H](C(=O)N[C@@H](CCCNC(=N)N)C(=O)N[C@@H](CCCCN)C(=O)O)NC(=O)CNC(=O)[C@H](CCC(=O)O)NC(=O)[C@H](CO)NC1=O [T12K] (H-SDFSCLSEGCRK-OH; disulfide 5-10),5.43 ± 0.29,"Inhibitory activity / binding in words, by Ki (subtilisin BPN′ [1]): significantly higher inhibition and binding affinity"
CC(C)C[C@H](NC(=O)[C@H](CCCNC(=N)N)NC(=O)[C@@H]1CSSC[C@H](NC(=O)[C@H](CO)NC(=O)[C@H](Cc2ccccc2)NC(=O)[C@H](CC(=O)O)NC(=O)[C@@H](N)CO)C(=O)N[C@@H](CC(C)C)C(=O)N[C@@H](CO)C(=O)N[C@@H](CCC(=O)O)C(=O)NCC(=O)N1)C(=O)O [T12L] (H-SDFSCLSEGCRL-OH; disulfide 5-10),12.9 ± 1.02,
CC(C)C[C@@H]1NC(=O)[C@@H](NC(=O)[C@H](CO)NC(=O)[C@H](Cc2ccccc2)NC(=O)[C@H](CC(=O)O)NC(=O)[C@@H](N)CO)CSSC[C@@H](C(=O)N[C@@H](CCCNC(=N)N)C(=O)N[C@@H](CCCNC(=N)N)C(=O)O)NC(=O)CNC(=O)[C@H](CCC(=O)O)NC(=O)[C@H](CO)NC1=O [T12R] (H-SDFSCLSEGCRR-OH; disulfide 5-10),4.41 ± 0.24,"Inhibitory activity / binding in words, by Ki (subtilisin BPN′ [1]): significantly higher inhibition and binding affinity"
OMTKY3: turkey ovomucoid third domain,,Ki (subtilisin BPN′ [2]): 0.023 nM
"SDFSCLSEGCRT (cysteine pairing not given here) [ASIP without a disulfide bond, ASIP without the Cys5‐Cys10 disulfide bond]",,"Inhibitory activity against subtilisin BPN′ in words (subtilisin BPN′ [3]; ASIP without a disulfide bond, substrate not stated): lacked inhibitory activity; Cleavage by subtilisin BPN′ (subtilisin BPN′ [3]; reduced / linear form of ASIP, cleaved at the peptide bond between Leu6 and Ser7): specifically cleaved"
marinostatin (FATMRYPSDSDE) [MST],,Ki (subtilisin BPN′ [2]): 1.5 nM
B1,,Ki (subtilisin BPN′ [2]): 0.005 nM
B2,,Ki (subtilisin Carlsberg): 0.15 nM
